A short description of data set [1]: Compound distribution in mice (plasma, skin, intestine) after oral 30 mg/kg. The data set is classed as in vivo, C57BL/6J mice. The conditions noted are these: for Tmax / concentration at 24 h / Kp / Cmax: C57BL/6J, mouse; for Tmax: in vivo; for concentration at 24 h: intestine, 24 h after administration, read-out: C 24 in intestine; for Kp: intestine/plasma, read-out: Intestine/Plasma ratio at T max; for Cmax: plasma, read-out: C max in plasma; for Cmax / C max in intestine / C max in skin: 3 mice. Here is the method:
Exposure was analyzed using blood, skin, and intestine samples from the C57BL/6J mice orally treated with 30 mg/kg of a compound. At 1, 4, 8, and 24 h after the administration, mice were anesthetized with isoflurane, and blood, skin, and intestine samples were collected. Three mice were used in each group. The blood samples were collected with sodium heparin, subjected to centrifugation, and plasma samples were collected. The skin and the intestine were homogenized and centrifuged to collect samples. The compound concentrations in each tissue sample with values equal to or greater than the lower limit of quantification (LLOQ; 0.005 µg/ml) were used for analyses (HPLC-MS/MS: Shiseido, Tokyo, Japan, Thermofisher Scientific, Waltham, MA).

A further data set in a line: Log D (lipophilicity). The data set is classed as physicochemical.
Data set [2] is described as follows: mouse plasma protein binding. The data set is classed as in vitro ADME.
A further data set has as its system HT-29 human colon cells. Briefly: Triglyceride synthesis in HT-29 cells (14C oleic acid incorporation). Format: cell-based. The note with it: Compound A 0.3 to 3 µM, Compound B 0.1 to 3 µM. Here is the method: (§1) The HT-29 cell line (American Type Culture Collection, Manassas, VA) was maintained in the McCoy’s 5A medium (Life Technologies, Carlsbad, CA) containing 10% fetal bovine serum. The HepG2 cell line (American Type Culture Collection) was maintained in the Dulbecco’s Modified Eagle Medium (Sigma-Aldrich, St. Louis, MO) containing 10% fetal bovine serum. For the experiments, the HT-29 cells were plated in 12-well plates at 3×10^5 cells, the HepG2 cells were plated in 12-well plates at 5×10^5 cells. The cells were cultured in serum-free media for 24 h, and incubated with a compound and oleic acid-albumin (Sigma-Aldrich) solubilized in dimethyl sulfoxide (final 0.1%) for 30 min. The triglyceride synthesis was initiated by the addition of ^14C oleic acid (0.2 µCi). The cells were washed in PBS and harvested into the organic phase using hexane:2-propanol (3∶2) 30 min after initiation of the triglyceride synthesis. The solvent was evaporated, the extracts were solubilized in chloroform, and lipids were separated via TLC. Incorporation of the radiolabel into the triglyceride fraction was analyzed using BAS2000 in triplicate. The IC50 of each compound was calculated using GraphPad Prism.

A further data set concerns HepG2 human liver cells. Briefly: Triglyceride synthesis in HepG2 cells (14C oleic acid incorporation). Format: cell-based. The conditions noted are these: Compound A 0.3 to 3 µM, Compound B 0.1 to 3 µM. On the procedure: as §1
For data set [3], the system named is skin of diet-induced-obese (DIO) mice. Description: Effects on the skin in diet-induced-obese (DIO) mice, 4-week treatment, histopathology. Format: in vivo, C57BL/6J mice. The note with it: 4 weeks; for skin aberrations (histopathology): oral, 30 mg/kg Compound A once daily, 30 mg/kg Compound B twice daily, 30 mg/kg. Here is the method:
After 10 weeks on high-fat diet, mice became obese (36±0.24 g). […] After 4 weeks of the treatment, all the animals were sacrificed. The skin (dorsolateral lesion) was removed and then fixed in 10% neutral buffered formalin, processed, embedded in paraffin, cut into thin sections and stained with Hematoxylin and Eosin. Histopathological examinations were performed. The size of the sebaceous glands were measured using WinROOF (Mitani Corporation, Tokyo, Japan).

The next data set deals with mouse skin homogenates. Description: Triglyceride synthesis in mouse skin homogenates. The data set is classed as biochemical.
Another data set concerns the target T1, mouse DGAT1 (Mus musculus, UniProt Q9Z2A7).
T1 construct: made in house; host or cells: Sf9 insect cells (baculovirus)
T1 sequence (Q9Z2A7 1-498): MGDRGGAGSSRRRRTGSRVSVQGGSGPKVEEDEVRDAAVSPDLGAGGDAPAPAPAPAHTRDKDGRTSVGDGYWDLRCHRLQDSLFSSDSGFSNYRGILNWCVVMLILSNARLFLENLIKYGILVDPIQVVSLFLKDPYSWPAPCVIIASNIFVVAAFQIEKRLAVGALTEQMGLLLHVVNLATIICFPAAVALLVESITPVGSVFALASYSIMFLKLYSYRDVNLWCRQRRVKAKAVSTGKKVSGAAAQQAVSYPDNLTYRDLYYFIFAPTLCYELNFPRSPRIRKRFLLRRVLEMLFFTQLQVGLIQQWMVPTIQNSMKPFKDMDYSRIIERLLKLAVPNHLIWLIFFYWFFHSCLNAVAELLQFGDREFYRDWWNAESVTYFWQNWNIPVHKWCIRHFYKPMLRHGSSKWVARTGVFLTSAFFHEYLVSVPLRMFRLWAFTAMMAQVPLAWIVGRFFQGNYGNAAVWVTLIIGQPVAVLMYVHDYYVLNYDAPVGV
Briefly: DGAT1 enzyme assay (mouse DGAT1 in Sf9 insect microsomes, 14C decanoyl CoA). Format: biochemical. The note with it: enzyme expressed in insect microsomes; read-out: mDGAT1 IC50. On the procedure:
(§2) The effects of the DGAT1 inhibitors were assessed using human (BC015762 from HeLa cell) and mouse DGAT1 (NM_010046 from mouse testis) in Sf9 insect microsomes. […] The Sf9 cells were homogenized and centrifuged at 600 g for 20 min. Thereafter, the supernatant was centrifuged at 10000 g for 1 h and the precipitate was collected as the […].
(§3) The mixture was incubated at room temperature for 45 min. The reaction was stopped by adding 0.5 M HCl and the incubated mixture was filtered using MultiscreenHTS-FB (Millipore, Billerica, MA). The human DGAT1 activity was quantified by counting the radioactivity of synthesized ^14C triglycerides by the Microbeta scintillation counter (PerkinElmer, Waltham, MA) in duplicate. […] Mouse DGAT1 enzyme assays were carried out in the same way.

The target of the next data set is T2, human DGAT1 (Homo sapiens, UniProt O75907).
T2 construct: made in house; host or cells: Sf9 insect cells (baculovirus)
T2 sequence (O75907 1-488): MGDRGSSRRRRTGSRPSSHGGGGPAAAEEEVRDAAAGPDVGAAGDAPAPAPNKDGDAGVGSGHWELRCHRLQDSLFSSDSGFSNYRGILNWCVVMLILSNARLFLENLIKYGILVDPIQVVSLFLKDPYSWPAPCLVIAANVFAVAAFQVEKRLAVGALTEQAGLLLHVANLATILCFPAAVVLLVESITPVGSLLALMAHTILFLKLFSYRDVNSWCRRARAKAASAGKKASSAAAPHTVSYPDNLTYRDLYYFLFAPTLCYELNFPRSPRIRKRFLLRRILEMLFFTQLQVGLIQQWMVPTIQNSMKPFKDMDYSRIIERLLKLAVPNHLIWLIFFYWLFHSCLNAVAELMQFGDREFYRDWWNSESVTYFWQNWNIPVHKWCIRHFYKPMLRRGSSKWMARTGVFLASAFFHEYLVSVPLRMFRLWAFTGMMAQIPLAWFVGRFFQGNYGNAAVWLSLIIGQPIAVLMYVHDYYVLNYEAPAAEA
Briefly: DGAT1 enzyme assay (human DGAT1 in Sf9 insect microsomes, 14C decanoyl CoA). The conditions noted are these: enzyme expressed in insect microsomes; read-out: hDGAT1 IC50. Format: biochemical. On the procedure: as §2, §3

For data set [4], the system named is postprandial hyperlipidemia in mice. Description: Postprandial hyperlipidemia in mice (corn oil load). The data set is classed as in vivo, C57BL/6J mice. Here is the method:
Eight-week-old male C57BL/6J mice were divided into treatment groups, each consisting of 7–8 mice, based on the body weight for the purpose of simplification of dose calculation. […] Blood samples were collected 1, 2, and 3 h later, and the plasma triglyceride level was determined by using WAKO TG H (Wako, Osaka, Japan). The area under the curve (AUC) of plasma triglyceride (AUCtriglyceride) was calculated.

In data set [5] the test system is glucagon-like peptide-1 (GLP-1) secretion. Description: GLP-1 secretion in mice after corn oil. The data set is classed as in vivo. The note with it: oral 10 and 30 mg/kg, 2 h after corn oil. On the procedure:
Mice were divided into treatment groups, each consisting of 6–8 mice, based on the body weight for the purpose of simplification of dose calculation. […] Blood samples were collected 2 h later, and the plasma GLP-1 level was determined by using Glucagon Like Peptide-1 (Active) ELISA Kit (Linco Research, Inc., St. Charles, MO).

The test system of data set [6] is diet-induced-obese (DIO) mice. Briefly: Long-time (4-week) treatment in DIO mice. The note with it: 4 weeks. The data set is classed as in vivo, C57BL/6J mice. On the procedure:
The DIO mice were fed with high-fat diet during the 4-week treatment period. Mice were fasted for 4 hours prior to blood collection. Plasma glucose, insulin, triglyceride, and free fatty acid concentrations were determined by using Glucose CII Test Wako (Wako), ultra sensitive mouse ELISA (Morinaga, Yokohama, Japan), L type WAKO TG H, and HA test WAKO NEFA (Wako), respectively.

Molecules are shown by their SMILES. Several values for one entry are separate records, joined by “and”; a condition that tells them apart may be missing. Equal values may be shown once. Entries after “also recorded” stand apart in the source; their conditions may differ.

The term Tmax denotes the time from dosing to the highest level. A word on the logD: it is the decadic logarithm of the distribution of all forms, ionised or not, between an organic phase and buffer at a given pH. Low values mean lower lipophilicity, high ones higher lipophilicity. In general, fraction unbound refers to the share of the substance not bound to proteins or other matrix. For the compound `CC1(C)Oc2ncnc(N)c2N=C1c1ccc([C@H]2CC[C@H](CC(=O)O)CC2)cc1` [Compound A, 4-[4-(4-amino-2,7,7-trimethyl-7H-pyrimido[4,5-b][1], [4]oxazin-6-yl)phenyl]-trans-Cyclohexaneacetic acid], the Tmax in [1] was 1 h. Also, in [1] (means ± SD), the concentration at 24 h worked out at 24 ± 1.6 µM, the Kp came out at 0.32, the Cmax is 240 ± 59 µM and the “C max in intestine” value was found to be 77 ± 37 µmol/kg. Also, the “C max in skin” value in [1] (means ± SD) came out at 14 ± 0.62 µmol/kg. For the same compound, the logD in the data set “Log D (lipophilicity)” is less than 0.9. The same compound displayed a fraction unbound in [2] of 0.032. Besides, the “inhibition of cellular triglyceride synthesis” value in the data set with HT-29 human colon cells is “significant inhibition was observed at 1 and 3 µM”. Besides, the “inhibition of cellular triglyceride synthesis” value with HepG2 human liver cells is on record as “at all the concentrations tested”. Also, the “injurious or inflammatory changes of the skin” value in data set [3] (30 mg/kg once daily) is “no injurious or inflammatory changes”. Besides, the “recovery of skin aberrations after compound withdrawal” value in data set [3] (30 mg/kg once daily, then withdrawal) was determined as 2 weeks. Also, the “skin aberrations (histopathology)” value in data set [3] is “skin aberrations derived from atrophy of the sebaceous gland; also recorded: moderate skin aberrations”. For the same compound, in the data set with mouse skin homogenates, the “inhibition of triglyceride synthesis” value is “inhibited the cellular triglyceride synthesis”.
One may read the IC50 as the concentration that inhibits the measured activity by half. Consider `O=C(Nc1ccccc1)Nc1ccc(-c2ccc(C(=O)[C@@H]3CCC[C@H]3C(=O)O)cc2)cc1` [Compound B, (1R, 2R)-2-[[4′-[[(Phenylamino)carbonyl]amino][1,1′-biphenyl]-4-yl]carbonyl]cyclopentanecarboxylic acid], for which the Tmax in data set [1] is 1 h. Besides, in data set [1] (means ± SD), the concentration at 24 h is 19 ± 3.7 µM, the Kp amounted to 10, the Cmax is 9.1 ± 2.3 µM and the “skin/IC50 (C max in skin/mDGAT1 IC50)” value is 0.084±0.033. In [1] (means ± SD), the “C max in intestine” value was determined as 92 ± 36 µmol/kg and the “C max in skin” value is 1.3 ± 0.51 µmol/kg. Moreover, in data set [1] (means ± SD, 30 mg/kg), the “Intestine/Plasma ratio at T max” value is recorded as 10±2.8; the “Intestine/Skin ratio at T max” value is 74 and 74±8.4. The IC50 on mouse DGAT1 was found to be 0.0155 µM. Also, the log distribution coefficient (logD) in the data set “Log D (lipophilicity)” was less than 0.9. In addition, the IC50 at human DGAT1 was determined as 0.0084 µM. The “plasma triglyceride levels after corn oil” value in [4] (oral 0.3, 1, 3 or 10 mg/kg 12 h before 3 ml/kg corn oil) is “reduced plasma triglyceride levels with a dose-dependent tendency”. Moreover, the “dose of maximum efficacy on plasma triglyceride” value in [4] (oral, 12 h before corn oil) amounted to 10 mg/kg. In data set [2], this compound gave a fraction unbound of 0.001. Also, the “inhibition of cellular triglyceride synthesis” value in the data set with HT-29 human colon cells is “significant inhibition was observed at 1 and 3 µM”. Moreover, the “inhibition of cellular triglyceride synthesis” value with HepG2 human liver cells is “at all the concentrations tested”. For the same compound, the “skin aberrations (histopathology)” value in [3] is on record as “changes in the skin were not observed; also recorded: no skin aberrations”. Moreover, the “plasma GLP-1 levels after corn oil administration” value in data set [5] is “increased plasma glucagon-like peptide-1 (GLP-1) levels”. The “inhibition of triglyceride synthesis” value in the data set with mouse skin homogenates was “inhibited the cellular triglyceride synthesis”. The “fatty liver (histological analysis)” value in [6] (10 or 30 mg/kg) is recorded as “attenuated fatty liver”. Also, in data set [6] (oral 1, 3, 10 or 30 mg/kg twice daily), the body weight gain result was “significant attenuation and significant reduction were observed at 10 mg/kg and 30 mg/kg, respectively”. Moreover, in data set [6] (oral twice daily), the “concentration of total-cholesterol in the liver” value is on record as “significant reduction was observed at 30 mg/kg”, the “concentration of triglyceride in the liver” value is on record as “significant reduction was observed at 30 mg/kg”, the liver weight result is given as “lack of differences in the liver weight among the groups” and the plasma glucose levels entry is given as “significant reduction was observed at 30 mg/kg”. For the same compound, in data set [6] (oral twice daily), the plasma insulin concentrations entry is given as “tended to decrease”, the “weight of epididymal fat” value is recorded as “significant reduction was observed at 30 mg/kg” and the “weight of mesenteric fat” value is on record as “significant reduction was observed at 30 mg/kg”.
